Marks after values point to notes of the source that are not given here.
Assays:
[1] = tested on: aphid parasitoid Aphidius ervi; experiment: Wind tunnel single choice test of A. ervi with synthetic compounds on filter paper; format: in vivo; conditions: 10 μg on filter paper, hexane control 26.7
Excerpt: Since semiochemicals acting as repellents or inhibitors of host attractancy for herbivorous insects are often involved in predation or parasitism, the activity of cis-jasmone was also investigated at higher trophic levels. […] These experiments indicate a behavioural role for cis-jasmone in influencing interactions between plants, herbivorous insects and their predators and parasitoids. Naive female A. ervi were flown in a wind tunnel, as described in J. Chem. Ecol. 16, 381-396 (1996) (Poppy et al.). The parasitoids were released 25 cm downwind (single choice tests) or 40 cm downwind (dual choice test) of the target, which was either a plant or a synthetic compound (10 μg in 10 μl hexane) placed on a 2×1 cm strip of filter paper (Whatman No. 1) surrounded by a ring of green crêpe paper. The proportions of parasitoids responding with an oriented flight to the synthetic chemicals were calculated each day on 3 separate days. These values were then subjected to a logit transformation to normalize the data before being analysed by ANOVA followed by Tukey post-hoc tests. The number of parasitoids orienting upwind to the single plant target were recorded and subjected to a χ^2 contingency test (Pearson method on Genstat—see Genstat 5 Committee. Genstat 5 Reference Manual, Release 3 (Clarendon Press, Oxford, 1993)) to determine whether an orienting response was linked to the type of plant treatment. The numbers orienting to each plant in the dual choice test were analysed by a χ^2 to determine whether one plant was more attractive than the other.

[2] = tested on: black bean aphid, Aphis fabae; conditions: J. Chem. Ecol. 20 (1994), Pettersson et al., Hardie et al.; cited from earlier work
[3] = tested on: grain aphid, Sitobion avenae; conditions: J. Chem. Ecol. 20 (1994), Pettersson et al., Hardie et al.; cited from earlier work
[4] = tested on: broad bean, V. faba (cv The Sutton); experiment: Induction of volatile release by bean plants (air entrainment, GC/GC-MS); format: in vivo, Vicia faba; conditions: 24 hour exposure at 100 μg/l in air; 48 hour entrainments
Experimental: A possible role for the compound as an airborne plant signal was investigated using the broad bean, V. faba (cv The Sutton). Plants were kept for 24 hours in clean air or in air incorporating cis-jasmone at 100 μg/l; subsequently, samples of volatiles released by the plants were obtained by entrainment over 4 periods of 48 hours, i.e. up to 192 hours after the end of the treatment. The cis-jasmone itself was undetectable after 48 hours. […] There was also, from some replicates, enhancement of (E,E)-α-farnesene, (−)-β-caryophyllene and (E)-4,8-dimethyl-1,3,7-nonatriene. These compounds have all been implicated in herbivorous insect-induced production and increased parasitoid foraging. The nonatriene can also be produced innately by plants imitating damage for defence against herbivores and which are thus attractive to parasitoids.
Bean plants, V. faba (cv The Sutton) were grown under standard glasshouse conditions until the 2-4 leaf stage when they were rinsed free of soil and transplanted into baked glass jars containing washed sand, with 3 plants per jar. These were left for 1-2 days to acclimatize. Plants to be treated (three jars of three plants each) were sealed in a 25 l glass tank for 24 hours with either cis-jasmone or methyl jasmonate (2.5 mg) applied to a piece of filter paper (Whatman No. 1) placed on the floor of the tank. […]

[5] = tested on: D251 sequence in Vicia faba plants; experiment: Differential display and northern blot of gene-specific sequence D251; format: in vivo; conditions: northern blot, versus air
Experimental: Total RNA was isolated from stem or leaf tissue of plants exposed to air, methyl jasmonate or cis-jasmone. 10 μg RNA per sample was loaded and separated on a formaldehyde gel (Panel A). The samples were then transferred to a nylon membrane and probed with the D251 sequence (Panel B). Lane 1=air treatment (control); lane 2=cis-jasmone treatment; lane 3=methyl jasmonate treatment. In the case of RNA isolated from leaf tissue, only cis-jasmone treatment results in upregulation. In order to determine if cis-jasmone was capable of inducing alterations in plant gene expression, the sensitive technique of differential display was carried out on RNA extracted from plants which had been exposed to air, methyl jasmonate or cis-jasmone. […] To confirm this observation, bands of interest were recovered by excision from the dried gel and re-amplified with the appropriate pair of oligonucleotide primers. The resulting PCR products were cloned and sequenced to confirm the homogeneous nature of the amplified product. These sequences were then used to probe RNA isolated from control or treated V. faba plants. […] It is important to note that the nature of the differential display technique generates short gene-specific probes, containing mainly 3′ untranslated regions of transcribed sequences, and therefore the functional part of the differentially expressed gene is unknown. Thus, using differential display and confirmatory northern blotting, we have shown that methyl jasmonate and cis-jasmone have apparently distinct effects on plant gene expression. […] Thus, the two compounds have distinct effect on plant gene expression and the response to these signalling compounds may be tissue-specific.

C=C/C(C)=C/C/C=C(\C)CCC=C(C)C [(E,E)-α-farnesene]
% showing oriented flight [1]: 60.9^a %

COC(=O)c1ccccc1O [Methyl salicylate]
behavioural effect on black bean aphid [2]: repelling | behavioural effect on cereal aphids including the grain aphid [3]: repelling

CC/C=C\CC1C(=O)CCC1CC(=O)OC (stereo not shown) [methyl jasmonate, reference compound]
effect on levels of (E)-β-ocimene released [4]: did not significantly increase | expression of D251 sequence in leaf tissue ([5]; RNA from leaf tissue of plants exposed to vapour): only cis-jasmone brought about an increase | expression of D251 sequence in stem tissue ([5]; RNA from stem tissue of plants exposed to vapour): upregulated to a similar level

C=C/C(C)=C/CC=C(C)C [(E)-β-ocimene]
% showing oriented flight [1]: 48.8^a %
